According to patent US20030207812A1, “Cd45 inhibitors” (priority 2002, published 2003):
pIC50: −log10 of the molar value. Read-outs that look alike come from different tables or passages of the source. Where a SMILES comes first, the peptide text is derived from it. The star is where a group is joined. 3Phenanthroyl(9,10-dioxo) = O=C1C(=O)c2ccc(C(=O)*)cc2-c2ccccc21; X1 = O=C1C(=O)c2cc(N*)ccc2-c2ccccc21

How the values were obtained:
[1] = molecular target: T1, CD45 (Homo sapiens, UniProt P08575); assay: Phosphatase assay using pNPP as substrate; type: biochemical
T1 construct: incubating the cytosolic portion of CD45 with the compounds and p-nitrophenyl phosphate (pNPP); purchased BIOMOL (Plymouth Meeting, Pa.)
T1 sequence (P08575 599-1306 limits assumed): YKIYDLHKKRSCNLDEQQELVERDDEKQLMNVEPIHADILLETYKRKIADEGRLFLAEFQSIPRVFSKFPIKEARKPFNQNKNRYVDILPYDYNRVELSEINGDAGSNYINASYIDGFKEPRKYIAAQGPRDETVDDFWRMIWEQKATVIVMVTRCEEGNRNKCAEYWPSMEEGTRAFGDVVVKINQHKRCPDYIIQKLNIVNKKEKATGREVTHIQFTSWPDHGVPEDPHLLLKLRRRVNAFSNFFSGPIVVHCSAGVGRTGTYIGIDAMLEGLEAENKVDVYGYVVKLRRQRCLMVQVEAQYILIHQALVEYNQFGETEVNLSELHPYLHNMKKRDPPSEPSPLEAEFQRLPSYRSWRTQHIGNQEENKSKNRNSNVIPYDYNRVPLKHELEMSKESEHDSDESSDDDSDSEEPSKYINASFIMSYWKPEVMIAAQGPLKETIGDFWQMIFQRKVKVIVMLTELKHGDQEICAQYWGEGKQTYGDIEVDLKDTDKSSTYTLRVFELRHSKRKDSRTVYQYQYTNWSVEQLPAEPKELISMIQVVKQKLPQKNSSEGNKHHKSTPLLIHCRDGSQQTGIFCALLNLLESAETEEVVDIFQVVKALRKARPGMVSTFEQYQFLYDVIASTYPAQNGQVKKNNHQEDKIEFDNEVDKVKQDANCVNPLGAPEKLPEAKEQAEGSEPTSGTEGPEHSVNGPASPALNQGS
Experimental: Phosphatase assay using pNPP as substrate:
CD45 enzyme was obtained from BIOMOL (Plymouth Meeting, Pa.). Phosphatase activity was assayed in a buffer containing final concentrations of 25 mM imidazole at pH 7.0, 50 mM NaCl, 2.5 mM ethylenediaminetetraacetic acid (“EDTA”), 5 mM dithiothreitol (“DTT”) and 10 μg/mL bovine serum albumin (“BSA”) using pNPP as a substrate.

[2] = molecular target: T1, CD45; assay: Phosphatase assay using lck 10-mer as substrate; type: biochemical; settings: CD45 phosphatase, lck carboxy-terminal peptide TEGQpYQPQP substrate, pH 7.2; read-out: Ick IC50
Experimental: Phosphatase assay using lck 10-mer as substrate:
Phosphatase activity was assayed in 96 well plates in a buffer containing final concentrations of 25 mM HEPES at pH 7.2, 5 mM DTT and 10 μg/mL BSA using the lck carboxy-terminal peptide TEGQpYQPQP as the substrate (Cho, H., Krishnaraj, R., Itoh, M., Kitas, E., Bannwarth, W., Saito, H., Walsh, C. T. 1993. Substrate specificities of catalytic fragments of protein tyrosine phosphatases (HPTPb, LAR, and CD45) toward the phosphotyrosylpeptide substrates and thiophosphotyrosylated peptides as inhibitors. Protein Science 2:977-984). Compounds were tested in a range from 30 to 0.01 μM in a final concentration of 5% DMSO. Enzyme was incubated with substrate with or without compound, at room temperature for 1.5 h. At the end of the incubation period, BIOMOL “Green Reagent” (BIOMOL, Plymouth Meeting, Pa.) was added to each well, the plates incubated at room temperature for 30 min and absorbance read at 620 nm.

[3] = tested on: T cells (PBMC); assay: cells; type: cell-based, human; settings: read-out: T cell prolif. IC50
Experimental: Cell isolation and T cell proliferation assay:
Whole blood was obtained from healthy human blood donors. Peripheral blood mononuclear cells (“PBMC”) were isolated using Lymphoprep density-gradient centrifugation (Nycomed Amersham, Oslo, Norway), washed, counted and resuspended at 2×10^6 cells/mL in RPMI 1640 medium containing glutamine, 0.1 mg/mL gentamycin and 10% heat inactivated human serum. PBMC were transferred to 96-well plates (2×10^5 cells/well) containing compound or vehicle control, with the final concentration of DMSO not to exceed 0.3%, and incubated for 1 hour before addition of the activating anti-CD3 antibody, OKT3 (30ng/mL). After 24 hours in culture, the cells were pulsed with [^3H]thymidine (1 μCi/well) overnight and harvested the next day onto 96-well Packard GF/C filter plates using a Packard Cell Harvester (Packard Instruments, Meriden, Conn.). The filter plate was dried, the bottom of the plate sealed, 25 μL of Microscint 20 scintillation fluid added to each well, the top of the plate sealed with TopSeal-A, and the plate counted on a Packard TopCount. The data from the TopCount is transferred into Excel 5 (Microsoft, Redmond, Wash.) and formatted for EC50 determination using Prism software (GraphPad Software, San Diego, Calif.).

[4] = Cytotoxicity assay (Calcein-AM uptake); settings: human, PHA-expanded T-cell lymphoblasts from PBMC
Experimental: Calcein-AM (Molecular Probes. Eugene, Oreg.) uptake, as a quantitative measure of cell viability, was used to evaluate the toxic effect of compounds on T cells.
The T-cell lymphoblasts were purified by separation over Lymphoprep, plated at 2×10^5/well in a round bottom 96-well plate containing RPMI with compound and incubated overnight at 37° C. in an incubator containing 5% CO2. The dilution scheme and culture media were the same as those used in the T-cell proliferation assay. After the incubation period, cells were washed with Dulbecco's phosphate-buffered saline (D-PBS) and incubated with 1 μM Calcein-AM for 30-45 mim in D-PBS as described in the technical sheet provided with The LIVE/DEAD Viability/Cytotoxicity Kit from Molecular Probes.

[5] = CD45 phosphatase, pNPP substrate, pH 7.0, read-out: pNPP IC50
[6] = human PBMC, OKT3 30 ng/mL, [3H]thymidine

SMILES	pIC50 [1, 5]	pIC50 [2]	pIC50 [3, 6]	CC50 [4]	pIC50 [1]	pIC50 ([1]; pH 7, read-out: pNPP IC50)	pIC50 ([3]; Homo sapiens)
O=C(Nc1ccc2c(c1)C(=O)C(=O)c1ccccc1-2)c1ccccc1F [Example 1, N-(9,10-Dioxo-9,10-dihydro-phenanthren-2-yl)-2-fluoro-benzamide]	6.22	4.96	5.51	20 µM			
O=C(COCc1ccccc1)Nc1ccc2c(c1)C(=O)C(=O)c1ccccc1-2 [Example 2, 2-Benzyloxy-N-(9,10-dioxo-9,10-dihydro-phenanthren-2-yl)-acetamide]	6.30	4.96	6.00	14 µM			
CCCC(=O)Nc1ccc2c(c1)C(=O)C(=O)c1ccccc1-2 [Example 3, N-(9,10-Dioxo-9,10-dihydro-phenanthren-2-yl)-butyramide]	6.15	4.77	5.96	8.2 µM			
CC(C)(C)C(=O)Nc1ccc2c(c1)C(=O)C(=O)c1ccccc1-2 [Example 4, N-(9,10-Dioxo-9,10-dihydro-phenanthren-2-yl)-2,2-dimethyl-propionamide]	6.70	5.42		3.5 µM			
O=C1C(=O)c2cc(NC(=O)c3ccccc3[N+](=O)[O-])ccc2-c2ccccc21 [Example 5, N-(9,10-Dioxo-9,10-dihydro-phenanthren-2-yl)-2-nitro-benzamide]	6.52	4.92	6.00	8.2 µM			
O=C1C(=O)c2ccc(NC(=O)c3ccccc3C(F)(F)F)cc2-c2ccccc21 [Example 13, N-(9,10-Dioxo-9,10-dihydro-phenanthren-3-yl)-2-trifluoromethyl-benzamide]	5.96	5.24		14 µM			
Cc1ccc(S(=O)(=O)N(c2ccc3c(c2)C(=O)C(=O)c2ccccc2-3)S(=O)(=O)c2ccc(C)cc2)cc1 [Example 14, N-(9,10-Dioxo-9,10-dihydro-phenanthren-2-yl)-4-methyl-N-[(4-methylphenyl)sulfonyl]-benzenesulfonamide]	4.89	< 4.52		5.3 µM			
O=C1C(=O)c2cc(-c3cc4ccccc4o3)ccc2-c2ccccc21 [Example 16, 2-Benzofuran-2-yl-phenanthrene-9,10-dione]	5.43			3.6 µM			
O=C1C(=O)c2cc(-c3ccccc3F)ccc2-c2ccccc21 [Example 18, 2-(2-Fluoro-phenyl)-phenanthrene-9,10-dione]	6.12			8.4 µM			
COc1ccccc1-c1ccc2c(c1)C(=O)C(=O)c1ccccc1-2 [Example 20, 2-(2-Methoxy-phenyl)-phenanthrene-9,10-dione]	6.00			8.9 µM			
NC(=O)CC[C@H](NC(=O)c1ccc2c(c1)-c1ccccc1C(=O)C2=O)C(=O)N[C@@H](CCC(N)=O)C(=O)N1CCC[C@H]1C(=O)N[C@@H](CCC(=O)O)C(=O)NCC(=O)O [Example 34] ({3Phenanthroyl(9,10-dioxo)}-QQPEG-OH)		5.72			6.05		
NC(=O)CC[C@H](NC(=O)[C@@H]1CCCN1C(=O)[C@H](CCC(=O)O)NC(=O)CNC(=O)c1ccc2c(c1)-c1ccccc1C(=O)C2=O)C(=O)NCC(=O)O [Example 38] ({3Phenanthroyl(9,10-dioxo)}-GEPQG-OH)		5.66			6.15		
CC(=O)N[C@@H](C)C(=O)N[C@H](C(=O)N[C@@H](CCC(=O)O)C(=O)NCC(=O)N[C@@H](CCC(N)=O)C(=O)N[C@@H](CC(=O)Nc1ccc2c(c1)C(=O)C(=O)c1ccccc1-2)C(=O)O)[C@@H](C)O [Example 60] (Ac-ATEGQD(X1)-OH)	5.70	5.10					
CC(=O)N[C@H](C(=O)N[C@@H](C)C(=O)N[C@H](C(=O)N[C@@H](CCC(=O)O)C(=O)NCC(=O)N[C@@H](CCC(N)=O)C(=O)N[C@@H](CC(=O)Nc1ccc2c(c1)C(=O)C(=O)c1ccccc1-2)C(=O)O)[C@@H](C)O)[C@@H](C)O [Example 61] (Ac-TATEGQD(X1)-OH)						5.74	
CC(=O)N[C@@H](Cc1ccccc1)C(=O)N[C@H](C(=O)N[C@@H](C)C(=O)N[C@H](C(=O)N[C@@H](CCC(=O)O)C(=O)NCC(=O)N[C@@H](CCC(N)=O)C(=O)N[C@@H](CC(=O)Nc1ccc2c(c1)C(=O)C(=O)c1ccccc1-2)C(=O)O)[C@@H](C)O)[C@@H](C)O [Example 62] (Ac-FTATEGQD(X1)-OH)						5.85	
COC(=O)CCCCCCC(=O)Nc1ccc2c(c1)C(=O)C(=O)c1ccccc1-2 [Example 71, 7-(9,10-Dioxo-9,10-dihydro-phenanthren-2-ylcarbamoyl)-heptanoic Acid Methyl Ester]	6.30	5.43		14 µM			
COC(=O)CCCCCCCCC(=O)Nc1ccc2c(c1)C(=O)C(=O)c1ccccc1-2 [Example 72, 9-(9,10-Dioxo-9,10-dihydro-phenanthren-2-ylcarbamoyl)-nonanoic Acid Methyl Ester]	< 4.52						
COC(=O)CCC(=O)Nc1ccc2c(c1)C(=O)C(=O)c1cc(NC(=O)CCC(=O)OC)ccc1-2 [Example 82, N-[7-(3-Methoxycarbonyl-propionylamino)-9,10-dioxo-9,10-dihydro-phenanthren-2-yl]-succinamic Acid Methyl Ester]	6.30	5.54		7 µM			
Nc1ccc2c(c1)C(=O)C(=O)c1ccccc1-2 [Example 87, 2-Amino-phenanthrene-9,10-dione]	6.40	5.64		5 µM			
Nc1ccc2c(c1)-c1ccccc1C(=O)C2=O [Example 88, 3-Amino-phenanthrene-9,10-dione]	5.43	4.98		17 µM			
COC(=O)CCC(=O)Nc1ccc2c(c1)-c1ccccc1C(=O)C2=O [Example 90, N-(9,10-Dioxo-9,10-dihydro-phenanthren-3-yl)-succinamic Acid Methyl Ester]	6.40	5.49		18 µM			
O=C1C(=O)c2cccc([N+](=O)[O-])c2-c2ccccc21 [Example 93, 4-Nitro-phenanthrene-9,10-dione]	6.30	5.41		10 µM			
O=C1C(=O)c2cccc([N+](=O)[O-])c2-c2ccc([N+](=O)[O-])cc21 [Example 95, 2,5-Dinitro-phenanthrene-9,10-dione]				≥ 30 µM			< 4.52
O=C(O)c1ccc2c(c1)-c1ccccc1C(=O)C2=O [Example 98, 9,10-Dioxo-9,10-dihydro-phenanthrene-3-carboxylic Acid]	6.00	5.62	< 4.52				
CC(C)(C)OC(=O)CNC(=O)c1ccc2c(c1)-c1ccccc1C(=O)C2=O [Example 102, [(9,10-dioxo-9,10-dihydro-phenanthrene-3-carbonyl)-amino]-acetic acid tert-butyl ester]		5.47	6.52	2.5 µM			
